Measurements published in patent US10233180B2, “Substituted nitrogen-containing heterocyclic derivatives, pharmaceutical compositions comprising the same and applications of antitumor thereof” (ZHEJIANG UNIVERSITY, priority 2014, dated 2019).
pIC50: −log10 of the molar value.

Legend:
Akt1 = target: T1, Akt1 (Homo sapiens, UniProt P31749); test: AKT1/PKBα KinEASE FP Fluorescein Green Assay (fluorescence polarization kinase kit); assay type: biochemical; conditions: 1 h reaction, read-out: Inhibitory activities against Akt1 (IC50)
T1 construct: purchased 32-021
T1 sequence (P31749 whole entry): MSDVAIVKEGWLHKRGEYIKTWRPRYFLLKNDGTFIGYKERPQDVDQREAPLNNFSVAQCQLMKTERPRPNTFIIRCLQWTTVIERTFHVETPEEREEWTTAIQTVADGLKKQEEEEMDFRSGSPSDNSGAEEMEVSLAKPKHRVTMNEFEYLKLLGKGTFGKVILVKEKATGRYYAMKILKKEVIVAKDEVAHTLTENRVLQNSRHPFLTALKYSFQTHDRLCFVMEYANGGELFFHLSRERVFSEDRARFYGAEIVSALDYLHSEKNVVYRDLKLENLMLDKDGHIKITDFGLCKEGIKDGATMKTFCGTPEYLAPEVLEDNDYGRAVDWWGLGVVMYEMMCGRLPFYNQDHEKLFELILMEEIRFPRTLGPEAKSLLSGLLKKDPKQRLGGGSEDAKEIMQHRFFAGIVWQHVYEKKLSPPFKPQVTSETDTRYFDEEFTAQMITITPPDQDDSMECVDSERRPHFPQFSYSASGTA
Method in brief: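 FP competition kinase assay: compounds (50 μM stock) with STK Substrate 3 and ATP, 1 h reaction at room temperature; stopped with stop/antibody mix, 4 h at room temperature, then polarization read. Inhibition derived from polarization values; IC50 calculated; triplicate wells.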

[1] = test system: Human ovarian cancer cell strain OVCAR-8; test: MTT assay, inhibition of tumor cell growth in vitro, 72 h; assay type: cell-based; conditions: Homo sapiens, OVCAR-8, MTT, read-out: Antitumor proliferative activities of tumor cell (IC50, μM) OVCAR-8
Method in brief: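 OVCAR8 cells in RPMI 1640 plus FBS were seeded at 4000 cells/well and exposed for 72 h at 37 °C to compound at 50, 10, 2, 0.4 and 0.08 μM final, with 1% DMSO as blank. Inhibition was calculated from OD relative to control, and IC50 was derived by the Bliss method.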

[2] = test system: human colon cancer cell strain HCT-116; test: as above; assay type: cell-based; conditions: Homo sapiens, HCT-116, MTT, read-out: Antitumor proliferative activities of tumor cell (IC50, μM) HCT-116 (converted)
Method in brief: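 Cells in RPMI 1640 with FBS, 4000 cells/well, exposed 72 h at 37 °C, 5% CO2 to final 50, 10, 2, 0.4 and 0.08 μM; 1% DMSO blank. MTT OD gives % inhibition versus control; IC50 derived by Bliss method.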

pIC50 (Akt1) | IC50 [1] [µM] | IC50 [2] [µM] | SMILES
6.92 | 14.3 | 6.8 | Cc1sc(C(=O)N[C@H]2CNCC[C@@H]2c2ccc(F)c(F)c2)cc1-c1c(Cl)cnn1C (racemic) [Compound 5, 5-methyl-4-(4-chloro-1-methyl-1H-pyrazol-5-yl)-N-(3,4-trans-4-(3,4-difluorophenyl)piperidin-3-yl)thiophene-2-formamide]
7.04 | 9.71 | 8.11 | Cn1ncc(Br)c1-c1csc(C(=O)N[C@@H]2CNCC[C@H]2c2ccc(F)c(F)c2)c1 [Compound 42, 4-(4-bromo-1-methyl-1H-pyrazol-5-yl)-N-((3S,4S)-4-(3,4-difluorophenyl)piperidin-3-yl)thiophene-2-formamide]
7.32 | 5.19 | 15.6 | CCc1c(-c2ncnn2C)c(Br)n(C)c1C(=O)N[C@H]1CNCC[C@@H]1c1cccc(C(F)(F)F)c1 (racemic) [Compound 4, 5-bromo-3-ethyl-1-methyl-4-(1-methyl-1H-1,2,4-triazol-5-yl)-N-(3,4-trans-4-(3-trifluoromethylphenyl)piperidin-3-yl)-1H-pyrrole-2-formamide]
8.30 | 2.91 | 0.34 | Cn1ncc(Cl)c1-c1ccc(C(=O)N[C@@H]2CNCC[C@H]2c2cccc3[nH]ccc23)cc1Cl [Compound 91, N-((3S,4S)-4-(1H-indol-4-yl)piperidin-3-yl)-3-chloro-4-(4-chloro-1-methyl-1H-pyrazol-5-yl)benzamide]
9.00 | 0.94 | 2.51 | Cn1ncc(Cl)c1-c1ccc(C(=O)N[C@@H]2CNCC[C@H]2c2ccc(Cl)cc2)c(C(F)(F)F)c1 [Compound 80, 4-(4-chloro-1-methyl-1H-pyrazol-5-yl)-N-((3S,4S)-4-(4-chlorophenyl)piperidin-3-yl)-2-(trifluoromethyl)benzamide]

More lines, now with the values behind:

SMILES | pIC50 (Akt1) | IC50 [1] [µM] | IC50 [2] [µM]
Cc1cnn(C)c1-c1cnc(C(=O)N[C@@H]2CNCC[C@H]2c2ccc(F)c(F)c2)cc1F [Compound 62, 4-fluoro-5-(1,4-dimethyl-1H-pyrazol-5-yl)-N-((3S,4S)-4-(3,4-difluorophenyl)piperidin-3-yl)pyridinyl-2-formamide] | 6.20 | 6.67 | 31.1
Cn1ncc(Cl)c1-c1ccc(C(=O)N[C@@H]2CNCC[C@H]2c2ccc(Cl)c(C(F)(F)F)c2)nc1 [Compound 96, 5-(4-chloro-1-methyl-1H-pyrazol-5-yl)-N-((3S,4S)-4-(4-chloro-3-(trifluoromethyl)phenyl)piperidin-3-yl)picolinamide] | 8.05 | 2.41 | 0.78
CNC(=O)CC1C[C@@H](c2cccc(F)c2)[C@H](NC(=O)c2cc(Cl)c(-c3c(Cl)cnn3C)s2)CN1 (stereo partly drawn) [Compound 149, 4-chloro-5-(4-chloro-1-methyl-1H-pyrazol-5-yl)-N-((3S, 4S)-4-(3-fluorophenyl)-6-(2-(methylamido)-2-oxoethyl)piperidin-3-yl)thiophene-2-formamide] | 8.15 | 3.21 | 2.56
CNS(=O)(=O)CC1C[C@@H](c2ccc(F)c(F)c2)[C@H](NC(=O)c2ccc(-c3c(Cl)cnn3C)c(F)c2)CN1 (stereo partly drawn) [Compound 101] | 8.15 | 0.43 | 2.11
